Reference: patent EP4755889A1, “COMPOUND FOR DETECTING AMYLOID-BETA OLIGOMER AND METHOD FOR DIAGNOSING DEGENERATIVE BRAIN DISEASE USING SAME” (Amyloid Solution Inc., priority 2024, dated 2025)

Columns and labels:
[1] = tested on: insoluble plaques in the 5XFAD mouse brain; test: Brain staining of AD mouse model with compound and anti-Aβ antibody 6E10; conditions: 5XFAD brain sections; co-staining with 6E10
Procedure: Mouse brain tissues were fixed in 4 % paraformaldehyde (Biosesang, Korea) at 4 °C overnight and then cryoprotected by immersion in 30 % sucrose for 48 hours. Brain sections (25 µm) were cut using a cryostat (CM1860, Leica) and mounted on slides. The brain tissue sections were treated with the compound of the present disclosure (500 µM) overnight at room temperature. After washing with 1X PBS, antigen retrieval for the fixed brain sections was performed in 1X PBS (Gibco, Korea) containing 1 % SDS (Biosesang, Korea) for 10 minutes, followed by blocking with 20 % horse serum in 1X PBS. After blocking for 1 hour, the slides were incubated with mouse monoclonal antibody 6E10 (1:200, BioLegend, USA) at room temperature for 1 hour. […] After staining the cortical and hippocampal regions of the fixed brain, each brain slide was visualized using a fluorescence microscope (DM500, Leica) equipped with filter cubes containing excitation and emission filters: N2.1 filter cube for detecting 6E10 staining (Excitation filter: BP 515-560; Dichromatic mirror: 580; Emission filter: LP 590) and L5 filter cube for detecting the compound of the present disclosure (Excitation filter: BP 480/40; Dichromatic mirror: 505; Emission filter: BP 527/30). […]

Aβ1-42 oligomers = molecular target: T1, Aβ1-42 oligomers (Homo sapiens, UniProt P05067); test: Selectivity for blood proteins: Aβ1-42 oligomers; format: binding; conditions: IK15j (25 µM); compared with albumin and fibrinogen
T1 construct: Aβ1-42 peptide was aggregated at 37 °C for 8 hours
Procedure: Aβ1-42 peptide was aggregated at 37 °C for 8 hours, and 25 µM of Aβ1-42 oligomers, albumin (Sigma-Aldrich, USA), and fibrinogen (Sigma-Aldrich, USA) were seeded into a black microplate. Each sample was treated with IK15j (100 µM) for 8 hours at room temperature. The signal of each sample was detected using a microplate reader (λex = 285 nm / λem = 475 nm).
Excluding water, the solid components of plasma consist of coagulation factors and plasma proteins. Albumin is the most abundant protein in plasma, and fibrinogen is a major coagulation factor in plasma. Considering the possibility that fibrinogen or albumin might interact with AD diagnostic tools and interfere with compound selectivity, IK15j (25 µM) was incubated with Aβ1-42, albumin, or fibrinogen as described in Reference Example 10, and the fluorescence signal of each sample was measured to evaluate the selectivity of the compound of the present disclosure against these proteins.

T1 sequence (P05067 672-713): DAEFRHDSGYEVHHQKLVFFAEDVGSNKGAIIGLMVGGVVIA

For `Cc1ccc2c(c1)c(-c1ccccc1)cn1c(C)cc(C#N)c21` [IK15j, 3,8-dimethyl-6-phenylpyrrolo[2,1-a]isoquinoline-1-carbonitrile], the “signal in hippocampal and cortical regions (brain staining)” value [1] was “no signal” and the “fluorescence intensity in the presence of Aβ1-42 oligomers compared to other proteins” value (Aβ1-42 oligomers) was “increased markedly”.
